Assay results published in patent publication US6500840B2, “Quinuclidine-substituted heteroaryl moieties for treatment of disease” (Pharmacia & Upjohn Company, priority 2000, dated 2002).

Key:
5HT3R = target: T1, 5HT3R (Homo sapiens, UniProt P46098); settings: cited from earlier work
T1 sequence (P46098 24-478): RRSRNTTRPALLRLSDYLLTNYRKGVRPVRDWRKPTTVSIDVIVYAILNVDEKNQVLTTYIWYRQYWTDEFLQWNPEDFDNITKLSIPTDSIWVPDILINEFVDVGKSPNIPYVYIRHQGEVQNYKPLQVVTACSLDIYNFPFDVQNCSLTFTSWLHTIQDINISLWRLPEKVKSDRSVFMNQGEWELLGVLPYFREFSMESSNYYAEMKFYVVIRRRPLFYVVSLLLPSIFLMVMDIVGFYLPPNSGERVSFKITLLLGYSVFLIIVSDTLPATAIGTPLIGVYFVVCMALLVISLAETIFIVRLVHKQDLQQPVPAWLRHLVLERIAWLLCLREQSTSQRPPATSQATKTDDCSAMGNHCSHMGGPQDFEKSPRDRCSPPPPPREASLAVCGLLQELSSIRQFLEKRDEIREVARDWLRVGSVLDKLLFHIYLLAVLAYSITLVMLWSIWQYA

α7 nAChR [1] = target: α7 nAChR (Homo sapiens, UniProt P36544); settings: cited from earlier work
Chain of α7 nAChR (Homo sapiens, UniProt P36544) (P36544 23-502): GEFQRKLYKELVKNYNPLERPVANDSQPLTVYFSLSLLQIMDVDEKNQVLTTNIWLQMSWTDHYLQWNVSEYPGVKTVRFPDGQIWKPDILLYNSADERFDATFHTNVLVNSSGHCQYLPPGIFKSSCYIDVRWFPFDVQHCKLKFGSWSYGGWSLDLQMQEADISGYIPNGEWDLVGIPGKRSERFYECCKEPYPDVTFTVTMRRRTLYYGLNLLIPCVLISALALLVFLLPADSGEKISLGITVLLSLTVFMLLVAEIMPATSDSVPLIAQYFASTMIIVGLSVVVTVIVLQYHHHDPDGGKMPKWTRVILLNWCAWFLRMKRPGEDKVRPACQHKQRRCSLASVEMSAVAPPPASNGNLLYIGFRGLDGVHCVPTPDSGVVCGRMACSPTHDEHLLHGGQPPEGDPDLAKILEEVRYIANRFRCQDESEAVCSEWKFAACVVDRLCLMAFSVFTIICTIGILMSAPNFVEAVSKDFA

α7 nAChR [2] = target: α7 nAChR (Rattus norvegicus, UniProt Q05941); assay: [3H]-MLA competition binding assay, rat brain membranes; settings: Ki, inhibition of [3H]-MLA binding (3.0 to 4.0 nM), Sprague-Dawley rat whole brain minus cerebellum homogenate, 1 hour at 25° C
Chain of α7 nAChR (Rattus norvegicus, UniProt Q05941) (Q05941 23-502): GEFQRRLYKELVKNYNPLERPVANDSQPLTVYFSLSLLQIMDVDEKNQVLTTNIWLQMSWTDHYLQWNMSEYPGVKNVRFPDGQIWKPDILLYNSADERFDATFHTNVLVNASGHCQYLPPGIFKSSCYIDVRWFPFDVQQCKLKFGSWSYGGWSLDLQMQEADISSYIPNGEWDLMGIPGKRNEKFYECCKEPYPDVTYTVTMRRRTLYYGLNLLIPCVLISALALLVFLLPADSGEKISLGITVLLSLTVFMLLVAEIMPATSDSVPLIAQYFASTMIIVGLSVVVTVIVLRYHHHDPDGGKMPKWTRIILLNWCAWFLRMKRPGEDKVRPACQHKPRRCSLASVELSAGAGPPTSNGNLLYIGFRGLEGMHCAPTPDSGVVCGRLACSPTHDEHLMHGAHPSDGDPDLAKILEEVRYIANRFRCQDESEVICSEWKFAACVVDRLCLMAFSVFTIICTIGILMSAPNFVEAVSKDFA

COc1ccc(/C=C2\CCCN=C2c2cccnc2)c(OC)c1 [GTS-21]
activity at the 5HT3R (5HT3R): little activity

Cc1nccn1CC1CCc2c(c3ccccc3n2C)C1=O (stereo not drawn) [Ondansetron]
activity at the α7 nAChR (α7 nAChR [1]): little activity

COc1ccccc1-c1cnc(C(=O)N[C@H]2CN3CCC2CC3)o1 [Example 84, N-[(3R)-1-azabicyclo[2.2.2]oct-3-yl]-5-(2-methoxyphenyl)-1,3-oxazole-2-carboxamide 4-methylbenzenesulfonate]
Ki (α7 nAChR [2]): 1100 to 1490 nM
